# From US20230103791A1 (GLAXOSMITHKLINE INTELLECTUAL PROPERTY DEVELOPMENT LIMITED, priority 2019, published 2023)
# Target: T1, human Nav1.8 (Homo sapiens, UniProt Q9Y5Y9)
# T1 construct: expressed in transfected cells; host or cells: HEK293 (HEK293-Nav1.8)
# Assay: Nav1.8 sodium channels assay, QPatch 48 HTX electrophysiology in HEK293-Nav1.8 cells
# Type: cell-based
# Details: at least one set of experimental runs; read-out: average pIC50 value against Nav1.8 (converted)
# Procedure, shortened: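 IC50 came from 6-8 point curves of P2 current amplitude, normalized to baseline and a positive reference, and corrected for run-down using vehicle-only wells. Automated patch clamp used HEK293-Nav1.8 (with Navβ1 and TREK1) at pH 7.4 outside and CsF-based solution inside. An 8 s inactivating step at −46 mV preceded the 0 mV test pulse, repeated at 0.07 Hz.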
# T1 sequence (Q9Y5Y9 whole entry): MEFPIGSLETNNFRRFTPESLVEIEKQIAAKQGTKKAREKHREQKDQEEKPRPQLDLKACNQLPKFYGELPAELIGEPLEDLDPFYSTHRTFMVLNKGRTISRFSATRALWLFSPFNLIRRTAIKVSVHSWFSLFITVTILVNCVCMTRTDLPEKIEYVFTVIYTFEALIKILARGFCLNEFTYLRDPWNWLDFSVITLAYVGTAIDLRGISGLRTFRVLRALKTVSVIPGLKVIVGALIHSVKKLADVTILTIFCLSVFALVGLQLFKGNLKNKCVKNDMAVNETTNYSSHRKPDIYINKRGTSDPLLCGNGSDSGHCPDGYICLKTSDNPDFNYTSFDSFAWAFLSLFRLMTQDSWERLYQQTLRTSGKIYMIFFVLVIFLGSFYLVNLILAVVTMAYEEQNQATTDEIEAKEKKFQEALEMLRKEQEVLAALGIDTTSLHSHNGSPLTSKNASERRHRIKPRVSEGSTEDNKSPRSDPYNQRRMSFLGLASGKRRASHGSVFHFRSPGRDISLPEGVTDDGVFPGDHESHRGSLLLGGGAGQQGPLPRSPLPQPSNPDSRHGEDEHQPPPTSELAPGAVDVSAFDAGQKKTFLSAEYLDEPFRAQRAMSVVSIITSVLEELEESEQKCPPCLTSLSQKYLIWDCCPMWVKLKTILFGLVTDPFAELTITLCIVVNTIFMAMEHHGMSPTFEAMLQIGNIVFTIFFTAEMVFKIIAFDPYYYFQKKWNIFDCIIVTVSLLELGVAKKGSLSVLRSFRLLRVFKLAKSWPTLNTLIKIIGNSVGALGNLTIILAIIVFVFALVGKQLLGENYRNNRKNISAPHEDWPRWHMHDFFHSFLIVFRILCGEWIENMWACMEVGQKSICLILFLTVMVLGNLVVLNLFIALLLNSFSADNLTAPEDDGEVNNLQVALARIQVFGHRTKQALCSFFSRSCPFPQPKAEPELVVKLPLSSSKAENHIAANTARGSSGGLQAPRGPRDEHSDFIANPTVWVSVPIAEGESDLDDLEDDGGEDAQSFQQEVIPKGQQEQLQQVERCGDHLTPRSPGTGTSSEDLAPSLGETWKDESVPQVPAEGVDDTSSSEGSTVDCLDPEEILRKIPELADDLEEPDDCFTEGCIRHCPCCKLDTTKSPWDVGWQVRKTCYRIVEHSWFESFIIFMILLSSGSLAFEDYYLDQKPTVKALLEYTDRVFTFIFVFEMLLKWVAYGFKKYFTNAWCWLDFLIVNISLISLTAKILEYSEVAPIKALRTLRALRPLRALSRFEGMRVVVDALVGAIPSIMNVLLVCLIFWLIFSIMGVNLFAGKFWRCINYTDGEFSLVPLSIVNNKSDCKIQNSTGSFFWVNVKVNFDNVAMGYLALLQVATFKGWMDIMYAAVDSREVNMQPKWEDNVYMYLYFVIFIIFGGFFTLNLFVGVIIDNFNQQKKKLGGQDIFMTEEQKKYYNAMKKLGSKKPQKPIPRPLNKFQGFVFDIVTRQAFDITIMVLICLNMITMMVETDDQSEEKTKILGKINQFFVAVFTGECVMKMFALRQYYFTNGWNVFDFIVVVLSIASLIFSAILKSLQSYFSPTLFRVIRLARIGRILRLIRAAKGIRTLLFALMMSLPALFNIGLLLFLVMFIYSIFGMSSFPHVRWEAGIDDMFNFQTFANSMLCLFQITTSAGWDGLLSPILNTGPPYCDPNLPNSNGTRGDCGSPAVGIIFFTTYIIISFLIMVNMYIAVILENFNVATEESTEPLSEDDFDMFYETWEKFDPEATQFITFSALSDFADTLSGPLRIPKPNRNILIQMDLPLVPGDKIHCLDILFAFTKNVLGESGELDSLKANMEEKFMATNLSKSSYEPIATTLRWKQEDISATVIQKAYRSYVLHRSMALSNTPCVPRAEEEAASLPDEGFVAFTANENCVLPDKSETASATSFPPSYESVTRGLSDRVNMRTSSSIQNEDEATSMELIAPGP
# T1 sequence (Q07699 19-218 partner): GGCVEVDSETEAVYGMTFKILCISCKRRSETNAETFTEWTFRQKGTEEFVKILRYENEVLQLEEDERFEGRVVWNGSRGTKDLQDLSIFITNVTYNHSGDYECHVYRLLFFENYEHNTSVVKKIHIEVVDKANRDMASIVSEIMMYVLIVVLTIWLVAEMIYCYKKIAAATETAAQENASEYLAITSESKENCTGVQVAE
row,IC50 [nM],SMILES
1,≤ 100,"Cc1cc(F)ccc1N1CN(c2cnc(=O)[nH]c2C)C(=O)c2ccc(OC(F)(F)F)cc21 [Example 205, 1-(4-fluoro-2-methylphenyl)-3-(6-methyl-2-oxo-1,2-dihydropyrimidin-5-yl)-7-(trifluoromethoxy)-2,3-dihydroquinazolin-4(1H)-one]"
2,126 to 631,"Cc1cc(F)ccc1N1CN(c2ccc(=O)n(C)c2C)C(=O)c2cc(C(F)(F)F)ccc21 [Example 209, 3-(1,2-dimethyl-6-oxo-1,6-dihydropyridin-3-yl)-1-(4-fluoro-2-methylphenyl)-6-(trifluoromethyl)-2,3-dihydroquinazolin-4(1H)-one]"
3,126 to 631,"Cc1cc(F)ccc1N1CN(c2ccc(=O)[nH]c2Cl)C(=O)c2cc(C(F)(F)F)ccc21 [Example 210, 3-(2-chloro-6-oxo-1,6-dihydropyridin-3-yl)-1-(4-fluoro-2-methylphenyl)-6-(trifluoromethyl)-2,3-dihydroquinazolin-4(1H)-one]"
4,794 to 7940,"Cc1cc(F)ccc1N1CN(c2c(C)cc(=O)[nH]c2Br)C(=O)c2ccc(C(F)(F)F)cc21 [Example 211, 3-(2-bromo-4-methyl-6-oxo-1,6-dihydropyridin-3-yl)-1-(4-fluoro-2-methylphenyl)-7-(trifluoromethyl)-2,3-dihydroquinazolin-4(1H)-one]"
5,≤ 100,"Cc1cc(F)ccc1N1CN(c2ccc(=O)[nH]c2C)C(=S)c2ccc(C(F)(F)F)cc21 [Example 214, 5-(1-(4-fluoro-2-methylphenyl)-4-thioxo-7-(trifluoromethyl)-1,4-dihydroquinazolin-3(2H)-yl)-6-methylpyridin-2(1H)-one]"
6,126 to 631,"Cc1cc(F)ccc1N1CN(c2ccc(=O)[nH]c2)C(=O)c2cc(C(F)(F)F)ccc21 [Example 215, 1-(4-Fluoro-2-methylphenyl)-3-(6-oxo-1,6-dihydropyridin-3-yl)-6-(trifluoromethyl)-2,3-dihydroquinazolin-4(1H)-one]"
7,126 to 631,"Cc1cc(F)ccc1N1CN(c2c[nH]c(=O)c(C)c2)C(=O)c2ccc(C(F)(F)F)cc21 [Example 218, 1-(4-fluoro-2-methylphenyl)-3-(5-methyl-6-oxo-1,6-dihydropyridin-3-yl)-7-(trifluoromethyl)-2,3-dihydroquinazolin-4(1H)-one]"
8,794 to 7940,"Cc1cc(F)ccc1N1CN(c2ccc(=O)[nH]n2)C(=O)c2ccc(C(F)(F)F)cc21 [Example 219, 1-(4-fluoro-2-methylphenyl)-3-(6-oxo-1,6-dihydropyridazin-3-yl)-7-(trifluoromethyl)-2,3-dihydroquinazolin-4(1H)-one]"
9,126 to 631,"Cc1cc(=O)[nH]cc1N1CN(c2ccc(F)cc2C)c2cc(C(F)(F)F)ccc2C1=O [Example 221, 1-(4-fluoro-2-methylphenyl)-3-(4-methyl-6-oxo-1,6-dihydropyridin-3-yl)-7-(trifluoromethyl)-2,3-dihydroquinazolin-4(1H)-one]"
10,≤ 100,"Cc1cc(F)ccc1N1CN(c2ccc(=O)[nH]c2C)C(=O)c2ccc(OCC(F)(F)F)cc21 [Example 230, 1-(4-fluoro-2-methylphenyl)-3-(2-methyl-6-oxo-1,6-dihydropyridin-3-yl)-7-(2,2,2-trifluoroethoxy)-2,3-dihydroquinazolin-4(1H)-one]"
11,794 to 7940,"Cc1[nH]c(=O)ccc1N1CN(c2cc(F)cc(F)c2C)c2ccc(C(F)(F)F)cc2C1=O [Example 235, 1-(3,5-difluoro-2-methylphenyl)-3-(2-methyl-6-oxo-1,6-dihydropyridin-3-yl)-6-(trifluoromethyl)-2,3-dihydroquinazolin-4(1H)-one]"

# More lines, now with the values behind:
row,SMILES,IC50 [nM]
1,"Cc1ccc2c(n1)N(c1ccc(F)cc1C)CN(c1ccc(=O)[nH]c1C)C2=O [Example 206, 1-(4-fluoro-2-methylphenyl)-7-methyl-3-(2-methyl-6-oxo-1,6-dihydropyridin-3-yl)-2,3-dihydropyrido[2,3-d]pyrimidin-4(1H)-one]",126 to 631
2,"CCc1cc(F)ccc1N1CN(c2ccc(=O)[nH]c2C)C(=O)c2cc(Cl)c(C#N)nc21 [Example 207, 6-chloro-1-(2-ethyl-4-fluorophenyl)-3-(2-methyl-6-oxo-1,6-dihydropyridin-3-yl)-4-oxo-1,2,3,4-tetrahydropyrido [2,3-d]pyrimidine-7-carbonitrile]",≤ 100
3,"Cc1[nH]c(=O)ccc1N1CN(c2ccc(F)cc2C(C)C)c2nc(C(F)(F)F)ccc2C1=O [Example 212, 1-(4-fluoro-2-isopropylphenyl)-3-(2-methyl-6-oxo-1,6-dihydropyridin-3-yl)-7-(trifluoromethyl)-2,3-dihydropyrido[2,3-d]pyrimidin-4(1H)-one]",≤ 100
4,"Cc1[nH]c(=O)ccc1N1CN(c2ccc(F)cc2C(C)C)c2ncc(Cl)cc2C1=O [Example 213, 6-chloro-1-(4-fluoro-2-isopropylphenyl)-3-(2-methyl-6-oxo-1,6-dihydropyridin-3-yl)-2,3-dihydropyrido[2,3-d]pyrimidin-4(1H)-one]",126 to 631
5,"COc1cc(F)ccc1N1CN(c2ccc(=O)[nH]c2)C(=O)c2ccc(C(F)(F)F)cc21 [Example 216, 1-(4-fluoro-2-methoxyphenyl)-3-(6-oxo-1,6-dihydropyridin-3-yl)-7-(trifluoromethyl)-2,3-dihydroquinazolin-4(1H)-one]",126 to 631
6,"Cc1cc(F)ccc1N1CN(c2ccc(=O)[nH]c2)C(=O)c2c1cccc2C(F)(F)F [Example 217, 1-(4-fluoro-2-methylphenyl)-3-(6-oxo-1,6-dihydropyridin-3-yl)-5-(trifluoromethyl)-2,3-dihydroquinazolin-4(1H)-one]",794 to 7940
7,"O=C1c2ccc(C(F)(F)F)cc2N(Cc2ccc(F)cc2)CN1c1ccc(=O)[nH]c1 [Example 220, 1-(4-fluorobenzyl)-3-(6-oxo-1,6-dihydropyridin-3-yl)-7-(trifluoromethyl)-2,3-dihydroquinazolin-4(1H)-one]",794 to 7940
8,"Cc1cc(F)ccc1N1CN(c2ccc(=O)[nH]c2)C(=O)c2ccc(C#N)cc21 [Example 222, 1-(4-fluoro-2-methylphenyl)-4-oxo-3-(6-oxo-1,6-dihydropyridin-3-yl)-1,2,3,4-tetrahydro-quinazoline-7-carbonitrile]",794 to 7940
9,"COc1cc(F)ccc1N1CN(c2ccc(=O)[nH]c2)C(=O)c2c1cccc2C(F)(F)F [Example 223, 1-(4-fluoro-2-methoxyphenyl)-3-(6-oxo-1,6-dihydropyridin-3-yl)-5-(trifluoromethyl)-2,3-dihydroquinazolin-4(1H)-one]",794 to 7940
10,"Cc1ncsc1N1CN(c2ccc(=O)[nH]c2C)C(=O)c2cc(C(F)(F)F)ccc21 [Example 224, 3-(2-methyl-6-oxo-1,6-dihydropyridin-3-yl)-1-(4-methylthiazol-5-yl)-6-(trifluoromethyl)-2,3-dihydroquinazolin-4(1H)-one]",794 to 7940
11,"COc1ccc(N2CN(c3ccc(=O)[nH]c3C)C(=O)c3cc(C(F)(F)F)ccc32)c(OC)c1 [Example 225, 1-(2,4-dimethoxyphenyl)-3-(2-methyl-6-oxo-1,6-dihydropyridin-3-yl)-6-(trifluoromethyl)-2,3-dihydroquinazolin-4(1H)-one]",≤ 100
12,"COc1cc(F)ccc1N1CN(c2ccc(=O)[nH]c2C)C(=O)c2cc(C(F)(F)F)ccc21 [Example 226, 1-(4-fluoro-2-methoxyphenyl)-3-(2-methyl-6-oxo-1,6-dihydropyridin-3-yl)-6-(trifluoromethyl)-2,3-dihydroquinazolin-4(1H)-one]",≤ 100
13,"Cc1cc(F)ccc1N1CN(c2ccc(=O)[nH]c2C)C(=O)c2cc(F)c(Cl)nc21 [Example 227, 7-chloro-6-fluoro-1-(4-fluoro-2-methylphenyl)-3-(2-methyl-6-oxo-1,6-dihydropyridin-3-yl)-2,3-dihydropyrido[2,3-d]pyrimidin-4(1H)-one]",≤ 100
14,"COc1cc(F)ccc1N1CN(c2ccc(=O)[nH]c2)C(=O)c2ccc(C#N)cc21 [Example 229, 1-(4-fluoro-2-methoxyphenyl)-4-oxo-3-(6-oxo-1,6-dihydropyridin-3-yl)-1,2,3,4-tetra-hydroquinazoline-7-carbonitrile]",794 to 7940
15,"Cc1cc(OC(F)(F)F)ccc1N1CN(c2ccc(=O)[nH]c2)C(=O)c2cc(C(F)(F)F)ccc21 [Example 231, 1-(2-methyl-4-(trifluoromethoxy)phenyl)-3-(6-oxo-1,6-dihydropyridin-3-yl)-6-(trifluoromethyl)-2,3-dihydroquinazolin-4(1H)-one]",≤ 100
16,"Cc1cc(F)ccc1N1CN(c2c(Cl)cc(=O)[nH]c2C)C(=O)c2cc(Cl)ccc21 [Example 232, 6-chloro-3-(4-chloro-2-methyl-6-oxo-1,6-dihydropyridin-3-yl)-1-(4-fluoro-2-methylphenyl)-2,3-dihydroquinazolin-4(1H)-one]",794 to 7940
17,"Cc1cc(F)ccc1N1CN(c2ccc(=O)[nH]c2C)C(=O)c2cc(C#N)c(Cl)cc21 [Example 233, 7-chloro-1-(4-fluoro-2-methylphenyl)-3-(2-methyl-6-oxo-1,6-dihydropyridin-3-yl)-4-oxo-1,2,3,4-tetra-hydroquinazoline-6-carbonitrile]",≤ 100
18,"Cc1cc(F)ccc1N1CN(c2ccc(=O)[nH]c2C)C(=O)c2c1ccc(Cl)c2C [Example 234, 6-chloro-1-(4-fluoro-2-methylphenyl)-5-methyl-3-(2-methyl-6-oxo-1,6-dihydropyridin-3-yl)-2,3-dihydroquinazolin-4(1H)-one]",≤ 100
19,"COc1cccc2c1C(=O)N(c1ccc(=O)[nH]c1C)CN2c1ccc(F)cc1C(C)C [Example 236, 1-(4-fluoro-2-isopropylphenyl)-5-methoxy-3-(2-methyl-6-oxo-1,6-dihydropyridin-3-yl)-2,3-dihydroquinazolin-4(1H)-one]",794 to 7940
20,"Cc1[nH]c(=O)ccc1N1CN(C23CC(C2)C3)c2cc(C(F)(F)F)ccc2C1=O [Example 237, 1-(bicyclo[1.1.1]pentan-1-yl)-3-(2-methyl-6-oxo-1,6-dihydropyridin-3-yl)-7-(trifluoromethyl)-2,3-dihydroquinazolin-4(1H)-one]",794 to 7940
